Calls of active or inactive are those of the source.
How the values were obtained:
[1] = biological target: T1, Glycogen phosphorylase, liver form (Homo sapiens, UniProt P06737); assay type: subcellular, K-562, COLO 205, SK-N-BE(2) and MV-4-11, Cell lysate; details: read-out: Kd apparent
T1 sequence (P06737 whole entry): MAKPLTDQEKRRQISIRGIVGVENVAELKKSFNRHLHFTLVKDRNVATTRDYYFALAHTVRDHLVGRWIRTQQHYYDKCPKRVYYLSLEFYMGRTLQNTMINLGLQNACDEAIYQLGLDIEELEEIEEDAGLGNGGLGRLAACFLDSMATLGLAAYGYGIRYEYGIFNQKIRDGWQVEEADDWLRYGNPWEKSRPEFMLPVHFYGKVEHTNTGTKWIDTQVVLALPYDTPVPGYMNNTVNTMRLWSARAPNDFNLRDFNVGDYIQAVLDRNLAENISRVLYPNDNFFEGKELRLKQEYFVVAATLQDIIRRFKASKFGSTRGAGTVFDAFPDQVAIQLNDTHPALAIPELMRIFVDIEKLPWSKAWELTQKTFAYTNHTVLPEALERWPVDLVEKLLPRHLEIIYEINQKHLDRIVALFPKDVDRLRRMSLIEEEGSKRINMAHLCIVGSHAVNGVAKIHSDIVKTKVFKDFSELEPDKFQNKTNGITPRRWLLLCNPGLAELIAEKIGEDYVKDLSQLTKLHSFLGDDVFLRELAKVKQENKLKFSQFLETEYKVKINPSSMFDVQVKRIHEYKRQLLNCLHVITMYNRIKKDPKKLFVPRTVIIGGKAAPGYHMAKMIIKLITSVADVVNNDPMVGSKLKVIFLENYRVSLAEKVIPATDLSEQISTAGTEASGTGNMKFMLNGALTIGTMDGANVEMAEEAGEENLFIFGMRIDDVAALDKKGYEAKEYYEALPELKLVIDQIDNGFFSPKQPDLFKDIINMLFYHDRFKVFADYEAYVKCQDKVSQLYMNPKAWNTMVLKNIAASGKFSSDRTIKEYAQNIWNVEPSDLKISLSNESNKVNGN

[2] = biological target: Serine/threonine-protein kinase B-raf (Homo sapiens, UniProt P15056)
[3] = biological target: T2, RNA cytidine acetyltransferase (Homo sapiens, UniProt Q9H0A0)
T2 sequence (Q9H0A0 whole entry): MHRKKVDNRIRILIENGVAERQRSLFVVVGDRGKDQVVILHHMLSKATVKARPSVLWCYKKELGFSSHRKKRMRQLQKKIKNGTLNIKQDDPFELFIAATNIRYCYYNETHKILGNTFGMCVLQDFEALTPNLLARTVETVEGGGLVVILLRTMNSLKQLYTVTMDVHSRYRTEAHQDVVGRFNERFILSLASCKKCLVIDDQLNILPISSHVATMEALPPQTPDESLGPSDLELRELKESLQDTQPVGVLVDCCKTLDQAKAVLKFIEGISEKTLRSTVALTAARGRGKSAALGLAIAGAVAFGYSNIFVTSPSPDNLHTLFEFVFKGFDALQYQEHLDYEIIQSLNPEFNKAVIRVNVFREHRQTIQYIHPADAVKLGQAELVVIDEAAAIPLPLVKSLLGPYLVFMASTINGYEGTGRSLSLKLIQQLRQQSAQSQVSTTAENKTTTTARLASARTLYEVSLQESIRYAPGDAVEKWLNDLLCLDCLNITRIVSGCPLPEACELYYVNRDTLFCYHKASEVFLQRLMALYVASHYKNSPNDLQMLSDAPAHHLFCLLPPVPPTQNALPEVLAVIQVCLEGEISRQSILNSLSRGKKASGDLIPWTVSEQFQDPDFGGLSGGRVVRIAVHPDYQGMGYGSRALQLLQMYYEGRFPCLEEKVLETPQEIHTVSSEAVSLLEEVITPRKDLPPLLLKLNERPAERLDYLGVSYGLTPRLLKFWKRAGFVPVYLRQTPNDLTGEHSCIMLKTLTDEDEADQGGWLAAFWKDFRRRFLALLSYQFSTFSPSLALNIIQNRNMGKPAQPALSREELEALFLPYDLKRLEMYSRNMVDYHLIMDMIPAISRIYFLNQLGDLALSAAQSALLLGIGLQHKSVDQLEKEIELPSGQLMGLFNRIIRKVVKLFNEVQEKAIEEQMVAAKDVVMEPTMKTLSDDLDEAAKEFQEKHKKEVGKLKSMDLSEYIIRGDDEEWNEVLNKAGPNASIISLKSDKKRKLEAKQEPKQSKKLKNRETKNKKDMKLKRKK

Obg-like ATPase 1 = Obg-like ATPase 1 (Homo sapiens, UniProt Q9NTK5)
[4] = biological target: Membrane-associated progesterone receptor component 1 (Homo sapiens, UniProt O00264)
[5] = biological target: Protein kinase C theta type (Homo sapiens, UniProt Q04759)
[6] = biological target: T3, STE20-related kinase adapter protein alpha (Homo sapiens, UniProt Q7RTN6)
T3 sequence (Q7RTN6 whole entry): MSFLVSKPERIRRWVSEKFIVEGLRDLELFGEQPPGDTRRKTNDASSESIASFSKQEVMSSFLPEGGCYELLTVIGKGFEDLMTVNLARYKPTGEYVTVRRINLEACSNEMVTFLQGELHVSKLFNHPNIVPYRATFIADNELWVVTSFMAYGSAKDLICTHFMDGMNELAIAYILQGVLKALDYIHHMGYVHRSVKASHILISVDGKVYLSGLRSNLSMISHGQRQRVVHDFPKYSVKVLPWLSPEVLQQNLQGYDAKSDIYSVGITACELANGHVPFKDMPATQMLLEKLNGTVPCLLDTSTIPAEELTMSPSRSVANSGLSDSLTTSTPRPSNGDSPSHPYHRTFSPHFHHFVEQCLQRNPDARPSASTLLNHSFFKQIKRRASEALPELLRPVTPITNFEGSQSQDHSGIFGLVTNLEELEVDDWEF
Further: in the data inactive means no Kd found up to 30 µM.

Chain of Membrane-associated progesterone receptor component 1 (O00264 whole entry): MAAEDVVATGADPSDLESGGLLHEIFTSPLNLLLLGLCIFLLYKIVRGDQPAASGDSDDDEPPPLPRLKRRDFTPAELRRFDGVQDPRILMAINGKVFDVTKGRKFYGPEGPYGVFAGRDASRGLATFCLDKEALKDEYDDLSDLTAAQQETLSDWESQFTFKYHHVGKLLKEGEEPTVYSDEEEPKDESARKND
Chain of Serine/threonine-protein kinase B-raf (P15056 whole entry): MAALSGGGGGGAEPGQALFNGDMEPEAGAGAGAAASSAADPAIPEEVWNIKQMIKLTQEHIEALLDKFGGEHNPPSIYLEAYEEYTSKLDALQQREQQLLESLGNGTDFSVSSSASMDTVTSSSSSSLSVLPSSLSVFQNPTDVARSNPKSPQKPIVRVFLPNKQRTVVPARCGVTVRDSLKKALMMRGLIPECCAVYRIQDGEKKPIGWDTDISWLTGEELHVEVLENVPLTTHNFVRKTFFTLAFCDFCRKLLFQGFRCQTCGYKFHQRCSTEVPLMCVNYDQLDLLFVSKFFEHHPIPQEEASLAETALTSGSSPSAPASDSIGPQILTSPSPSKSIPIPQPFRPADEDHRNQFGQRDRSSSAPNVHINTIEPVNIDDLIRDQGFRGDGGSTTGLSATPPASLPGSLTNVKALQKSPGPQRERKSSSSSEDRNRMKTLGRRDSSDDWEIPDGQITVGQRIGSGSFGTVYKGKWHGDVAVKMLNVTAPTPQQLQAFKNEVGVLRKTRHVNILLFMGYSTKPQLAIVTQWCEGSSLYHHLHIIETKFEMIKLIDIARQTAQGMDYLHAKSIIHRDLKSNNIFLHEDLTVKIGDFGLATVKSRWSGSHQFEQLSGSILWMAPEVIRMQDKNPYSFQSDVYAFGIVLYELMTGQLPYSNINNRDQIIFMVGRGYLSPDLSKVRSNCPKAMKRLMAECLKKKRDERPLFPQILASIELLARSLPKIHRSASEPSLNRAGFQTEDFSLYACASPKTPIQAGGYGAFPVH
Chain of Protein kinase C theta type (Q04759 whole entry): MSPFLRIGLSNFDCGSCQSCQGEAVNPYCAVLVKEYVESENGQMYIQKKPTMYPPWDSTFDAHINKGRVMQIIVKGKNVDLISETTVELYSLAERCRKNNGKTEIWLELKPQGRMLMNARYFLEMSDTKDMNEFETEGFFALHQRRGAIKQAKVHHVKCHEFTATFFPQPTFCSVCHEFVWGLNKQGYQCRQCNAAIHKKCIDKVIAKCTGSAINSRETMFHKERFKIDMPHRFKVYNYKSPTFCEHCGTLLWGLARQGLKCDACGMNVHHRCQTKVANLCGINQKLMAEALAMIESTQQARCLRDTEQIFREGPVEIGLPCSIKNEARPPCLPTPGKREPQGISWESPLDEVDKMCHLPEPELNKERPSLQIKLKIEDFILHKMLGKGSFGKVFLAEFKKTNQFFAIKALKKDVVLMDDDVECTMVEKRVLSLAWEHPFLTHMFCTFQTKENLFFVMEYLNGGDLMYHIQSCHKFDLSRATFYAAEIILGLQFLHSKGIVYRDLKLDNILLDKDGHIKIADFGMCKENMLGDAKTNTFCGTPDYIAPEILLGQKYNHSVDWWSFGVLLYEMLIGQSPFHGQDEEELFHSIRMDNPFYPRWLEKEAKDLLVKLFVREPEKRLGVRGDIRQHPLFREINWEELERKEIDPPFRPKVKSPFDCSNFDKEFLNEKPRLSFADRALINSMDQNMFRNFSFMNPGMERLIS
Chain of Obg-like ATPase 1 (Q9NTK5 whole entry, looked up): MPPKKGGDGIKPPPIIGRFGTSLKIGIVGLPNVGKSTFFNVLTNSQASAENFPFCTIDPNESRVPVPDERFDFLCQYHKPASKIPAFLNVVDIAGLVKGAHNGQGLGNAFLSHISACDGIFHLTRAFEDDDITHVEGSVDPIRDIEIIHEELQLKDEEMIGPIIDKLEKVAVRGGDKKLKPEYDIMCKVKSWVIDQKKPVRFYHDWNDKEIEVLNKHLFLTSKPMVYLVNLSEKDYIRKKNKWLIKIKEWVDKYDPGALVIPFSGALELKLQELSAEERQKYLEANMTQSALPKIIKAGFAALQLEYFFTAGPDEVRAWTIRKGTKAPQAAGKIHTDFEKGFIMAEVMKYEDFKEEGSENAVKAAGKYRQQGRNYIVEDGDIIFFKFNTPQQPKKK

Kd [1]	Kd [2]	Kd [3]	Kd (Obg-like ATPase 1)	Kd [4]	Kd [5]	Kd [6]	SMILES
> 30 µM (inactive)	> 30 µM (inactive)	> 30 µM (inactive)	> 30 µM (inactive)	> 30 µM (inactive)	> 30 µM (inactive)	> 30 µM (inactive)	Cn1cc(-c2cnn3c(N)c(Br)c([C@@H]4CCCNC4)nc23)cn1 [SCH-900776]
> 30 µM (inactive)	> 30 µM (inactive)	> 30 µM (inactive)	> 30 µM (inactive)	> 30 µM (inactive)	> 30 µM (inactive)	> 30 µM (inactive)	CO[C@H]1C[C@@H]2CC[C@@H](C)[C@@](O)(O2)C(=O)C(=O)N2CCCC[C@H]2C(=O)O[C@H]([C@H](C)C[C@@H]2CC[C@@H](OC(=O)C(C)(CO)CO)[C@H](OC)C2)CC(=O)[C@H](C)/C=C(\C)[C@@H](O)[C@@H](OC)C(=O)[C@H](C)C[C@H](C)/C=C/C=C/C=C/1C [TEMSIROLIMUS]
> 30 µM (inactive)	> 30 µM (inactive)	> 30 µM (inactive)	> 30 µM (inactive)	> 30 µM (inactive)	> 30 µM (inactive)	> 30 µM (inactive)	O=C(Cc1ccc(-c2ccc(OCCN3CCOCC3)cc2)cn1)NCc1ccccc1 [TIRBANIBULIN]
> 30 µM (inactive)	> 30 µM (inactive)	> 30 µM (inactive)	> 30 µM (inactive)	> 30 µM (inactive)	> 30 µM (inactive)	> 30 µM (inactive)	O=C1NC(=O)[C@@H](c2cn3c4c(cccc24)CCC3)[C@@H]1c1c[nH]c2ccccc12 [TIVANTINIB]
